Data on one compound can be found in US10888536B1, “Method of improvement of insulin sensitivity in obese patients” (FOOYIN UNIVERSITY, priority 2019, dated 2021).

Experiment [1] deals with obese rats. Description: Fasting serum insulin in high fat diet obese rats (Trial D). To be noted: 1 and 3 ppm propanamide in high fat diet for 4 weeks (groups D2 and D3), fasted 18 hours, 23rd week (FIG. 7). The format is in vivo, Wistar male rats. The method, then: (§1) Wistar male rats were used as the animal model in Trial (D). […] The obese rats of group D1 were then fed by the high fat diet without propanamide for another 4 weeks (total 23 weeks), while the obese rats of group D2 and D3 were fed by the high fat diet respectively containing 1 ppm and 3 ppm propanamide for further 4 weeks, The normal rats of group D0 were fed by normal diet for 23 weeks (total 23 weeks). At the 22th week, the oral glucose tolerance tests (OGTT) were performed as following: the rats of groups D0-D3 were fasted for 18 hours, and then were administered a 20% glucose solution (2 g glucose/kg body weight) by gavage. Blood samples were collected and the glucose concentrations were detected at 0, 30, 60, 90, and 120 minutes after glucose loading. At 23th week, the rats of groups D0-D3 were fasted for 18 hours before scarification, and the serum were analyzed the level of insulin.

Another experiment concerns obese mice. The experiment in a line: Fasting blood glucose in high fat diet obese mice (Trial C). The format is in vivo, Male ICR mice. Conditions: high fat diet containing 3 ppm propanamide for 2 weeks (group C2), fasted 18 hours (FIG. 5). The text has this:
Male ICR mice were used as the animal model in Trial (C). […] The obese mice of group C1 were then fed by the high fat diet for another 2 weeks, while the obese mice of group C2 were fed by the high fat diet containing 3 ppm propanamide for further 2 weeks. The normal mice of group C0 were fed by normal diet for 19 weeks. After 19 weeks, the mice of groups C0-C2 were sacrificed, and the effect of propanamide on reducing the accumulation of visceral fat was estimated by weight of epididymal fat (% of body weight). Before being sacrificed, the mice of groups C0-C2 were fasted for 18 hours, and the levels of fasting blood glucose of the mice were measured. Referring to FIG. 5, the levels of fasting blood glucose of the obese mice fed by the high fat diet (group C1) were higher than that of the normal mice fed by the normal diet (group C0).

For experiment [2], the system named is mouse macrophage (J774A.1 cell line). The experiment in a line: ATP level in J774A.1 cells by ATP luminometer (Trial A). In kind it is cell-based. The method, then: To evaluate propanamide can increase of ATP synthesis, mouse macrophage (J774A.1 cell line) was used as the cell model. The J774A.1 cells without treatment were used as group A0. ATP level in the J774A.1 cells of groups A0-A5 were analyzed by ATP luminometer, respectively. The unit of ATP level is relative light unit (R.L.U).

Experiment [3] relates to obese rats. Description: Oral glucose tolerance test (OGTT) in high fat diet obese rats (Trial D). In kind it is in vivo, Wistar male rats. As to the method: as §1, with “loading.” for “loading. At 23th week, the rats of groups D0-D3 were fasted for 18 hours before scarification, and the serum were analyzed the level of insulin.”
The subject of the next experiment is TNF-α. Description: TNF-α level in medium of J774A.1 cells with or without LPS (Trial B). In kind it is cell-based, mouse. As to the method: The increase of cellular ATP can change the activity of macrophage, inhibiting the production of the proinflammatory cytokine, TNF-α, as well as the inflammation. After 15 minutes, 200 ng/ml lipopolysaccharide (LPS) was used to induce the inflammation in the J774A.1 cells of groups B1, B3 and B5. The medium of the J774A.1 cells was collected, and the TNF-α level in the medium was detected by a commercial kit.

With `CCC(N)=O` [propanamide], in the experiment with obese rats [1], the fasting serum insulin result is “reduced to normal level”. In addition, the “levels of fasting blood glucose” value in the experiment on obese mice is listed as “decreased significantly”. In addition, the “dose dependence of ATP production” value in experiment [2] (concentration below 4 μM, 6 hours (FIG. 2)) is recorded as “dose-dependent response”. The “ATP level in the J774A.1 cells” value in experiment [2] (propanamide 0.04-400 μM, 6 hours, vs untreated cells (FIG. 2)) is “effectively elevate ATP level”. For the same compound, in the experiment with obese rats [3] (1 and 3 ppm propanamide in high fat diet (groups D2 and D3) (FIG. 6b)), the “area under curve (AUC) of blood glucose in OGTT” value was “decreased significantly”. Moreover, the “blood glucose during OGTT vs group D1” value in the experiment on obese rats [3] (1 ppm and 3 ppm propanamide in high fat diet (groups D2 and D3), 120 minutes after glucose loading (FIG. 6a)) is “significantly lower”. For the same compound, the “blood glucose in untreated obese rats (group D1) relative to group D2 during OGTT” value in the experiment with obese rats [3] (1 ppm propanamide in high fat diet (group D2), 90 minutes to 120 minutes after glucose loading (FIG. 6a)) is reported as “evidently higher”. Moreover, in the experiment on TNF-α (propanamide 4 and 40 μM (groups B2 and B4), no LPS (FIG. 3)), the “production of TNF-α not induced by LPS” value is reported as “also inhibit the production of TNF-α”. In addition, the “production of TNF-α induced by LPS” value with TNF-α (propanamide 4 and 40 μM (groups B3 and B5), 200 ng/ml LPS after 15 minutes (FIG. 3)) is given as “effectively inhibit the production of TNF-α induced by LPS”.
